Data reported in patent US8318186B2, “Use of at least a fatty ester for preparing a composition designed to inhibit 5-α-reductase activity, in pharmacology, in particular dermatology, in cosmetics and as food additive” (Laboratoires Expanscience, priority 2000, dated 2012).
Several values for one entry are separate records, joined by “and”; a condition that tells them apart may be missing. Equal values may be shown once. Marks after values point to notes of the source that are not given here.

What was measured:
[1] = tested on: 5α-reductase; experiment: 5α-reductase activity, conversion of testosterone to 5α-dihydrotestosterone in normal human dermal fibroblast cultures (Example 3); format: cell-based; settings: for 5α-reductase activity as percentage of the DMSO group / 5α-DHT formed per culture well, mean / 5α-DHT formed per culture well, single well: 22 hours of incubation; for 5α-DHT formed per culture well, mean / 5α-DHT formed per culture well, single well: DMSO 1% (v/v); for 5α-DHT formed per culture well, mean: mean of triplicate; for 5α-DHT formed per culture well, single well: single replicate; for inhibition of the 5α-reductase activity: text of Example 3
Experimental: It is proposed to evaluate the effect of the products such as methyl oleate (Sigma commercial product, 99% purity), of the methyl esters of avocado and of a Serenoa Repens extract chosen as reference on the 5α-reductase activity. An in vitro model of normal human dermal fibroblast cultures was selected.
(§1) The fibroblast culture medium (FCM) consisted of MEM/M199 (3:1, v/v) supplemented with penicillin (50 IU/ml), streptomycin (50 μg/ml), sodium bicarbonate (0.2%, w/v) and FCS (10%, v/v).
(§2) The assay system consisted of normal human dermal fibroblasts cultured as a monolayer. The fibroblasts were isolated from a residue from abdominal plastic surgery performed on a person (subject BIOPREDIC No. I0013). The cells were used at the fifth passage; they were cultured until the monolayers were confluent in FCM medium at 37° C. in a humid atmosphere containing 5% CO2.
(§3) The fibroblast incubation medium (FIM) consisted of FCM supplemented with tritiated testosterone (1.6×10^−7 M, that is 6.32 μCi/ml) and nonradiolabeled testosterone (3.84×10^−6 M)
The test products and finasteride were taken up in DMSO before being diluted in the incubation medium. The final concentration of DMSO was kept constant and equal to 1% (v/v) in each dilution of test products and reference products.
(§4) The fibroblast cultures were preincubated in the presence of the test products or of the reference product for 2 hours before adding the substrate, testosterone. For this step, the test products and the reference product were prepared in the FCM medium.
After preincubation, the fibroblast cultures were incubated in the presence of the test products or of the reference product prepared in the FIM medium for 22 hours at 37° C. in a humid atmosphere containing 5% CO2. Control cultures were incubated in the FIM medium in the absence of test products and of reference product. “DMSO control” cultures were incubated in the FIM medium containing 1% (v/v) of DMSO.
(§5) Each experimental condition was tested in triplicate.
(§6) After the incubation period, the cells were subjected to the action of ultrasound in the FIM medium. The cellular lysates thus obtained were extracted with dichloromethane. After evaporation, the dry residues were taken up in methanol and were deposited on 60F254 silica plates (MERCK, reference 5554).
Nonradiolabeled standards, testosterone, 5α-dihydro-testosterone and androstenedione, were deposited on each of the plates.
(§7) The migration solvent was a mixture of dichloromethane and ether (7:3, v/v) At the end of the migration, the silica plates were read using a BERTHOLD radioactivity scanner.
The nonradiolabeled standards were visualized by spraying 5% sulfuric acid (v/v) over the chromatography plates which were then heated at 100° C. for 10 minutes.
Comparison of the Rf values (relative retardation factor) determined for the standards with those obtained for the various radioactive metabolites allowed the identification of the latter.
(§8) The metabolizing of testosterone to 5α-dihydro-testosterone under the various experimental conditions was calculated: the results (areas of the 5α-dihydrotestosterone peaks counted by the BERTHOLD scanner) were expressed in pmol of 5α-dihydro-testosterone formed per culture well. They were also expressed as a percentage of the 5α-reductase activity present in the “DMSO control” group.
(§9) The groups of data (control group and treated groups) were treated by a one-way analysis of variance (ANOVA 1, p<0.05), followed by a DUNNETT's test (p<0.05). The effect of the test products and of the reference product was compared with the “DMSO control” group. The effects of the test products were compared to each other by a two-way analysis of variance (ANOVA 2, p<0.05, factor 1=concentration and factor 2=treatment).

[2] = tested on: 5α-reductase; experiment: Fatty acid esters on 5α-reductase activity, conversion of testosterone to 5α-dihydrotestosterone in normal human dermal fibroblast cultures (Example 4); format: cell-based; parameters: key to group by 5α-reductase inhibitory activity: group A with the highest inhibitory activity; group B with an intermediate inhibitory activity; settings: for inhibition of the 5α-reductase activity: Example 4, p<0.05; for 5α-DHT formed per culture well, mean / 5α-DHT formed per culture well, single well: after 24 of incubation, DMSO 0.1% (v/v); for 5α-DHT formed per culture well, single well: single replicate
Experimental: as §1, §2, §3
The test products and finasteride were taken up in DMSO before being diluted in the incubation medium. […]
as §4
After preincubation, the fibroblast cultures were incubated in the presence of the test products or of the reference product prepared in the FIM medium for 22 hours at 37° C. in a humid atmosphere containing 5% CO2. Control cultures were incubated in the FIM medium in the absence of test products and of reference product. […]
as §5, §6, §7, §8, §9
The same materials and methods are used as in example 3 above.
It was proposed to evaluate the effect of fatty acid esters on the 5α-reductase activity. An in vitro model of normal human dermal fibroblast cultures was selected. The products tested were chosen from the group of fatty acid esters varying in the length and the functionality of the fatty chain, and the nature of the alkoxy group. These esters are the following: methyl oleate, methyl linoleate, methyl stearate, methyl laurate, methyl undecylenate, butyl oleate, oleyl oleate and methyl ricinoleate.

## CCCCCCCC/C=C\CCCCCCCC(=O)OC [Methyl oleate, methyl oleate]
[1]; 1 μg/ml
  5α-reductase activity as percentage of the DMSO group: 76 percentage of the DMSO group
  5α-DHT formed per culture well, mean: 6.48* +/− pmol of 5α-DHT formed/culture well
  5α-DHT formed per culture well, single well: 7.12 pmol of 5α-DHT formed/culture well and 6.24 pmol of 5α-DHT formed/culture well and 6.08 pmol of 5α-DHT formed/culture well
  inhibition of the 5α-reductase activity: 24%
[1]; 10 μg/ml
  5α-reductase activity as percentage of the DMSO group: 62 percentage of the DMSO group
  5α-DHT formed per culture well, mean: 5.32* +/− pmol of 5α-DHT formed/culture well
  5α-DHT formed per culture well, single well: 3.00 pmol of 5α-DHT formed/culture well and 7.04 pmol of 5α-DHT formed/culture well and 5.92 pmol of 5α-DHT formed/culture well
  inhibition of the 5α-reductase activity: 38%
[1]; 100 μg/ml
  5α-reductase activity as percentage of the DMSO group: 59 percentage of the DMSO group
  5α-DHT formed per culture well, mean: 5.05* +/− pmol of 5α-DHT formed/culture well
  5α-DHT formed per culture well, single well: 5.44 pmol of 5α-DHT formed/culture well and 5.12 pmol of 5α-DHT formed/culture well and 4.60 pmol of 5α-DHT formed/culture well
  inhibition of the 5α-reductase activity: 41%
[1]; tested at 10 and 100 μg/ml, compared with Serenoa repens extract
  5α-reductase inhibitory activity, in words: significantly higher than that of the Serenoa repens extract
[2]; 1 μg/ml
  5α-reductase activity as percentage of the “DMSO 0.1% (v/v)” group: 71 percentage of the “DMSO 0.1% (v/v)” group
  inhibition of the 5α-reductase activity: 29%
  5α-DHT formed per culture well, mean: 8.12* +/− pmol of 5α-DHT formed/culture well
  5α-DHT formed per culture well, single well: 8.24 pmol of 5α-DHT formed/culture well and 8.28 pmol of 5α-DHT formed/culture well and 7.84 pmol of 5α-DHT formed/culture well
[2]; 10 μg/ml
  5α-reductase activity as percentage of the “DMSO 0.1% (v/v)” group: 58 percentage of the “DMSO 0.1% (v/v)” group
  inhibition of the 5α-reductase activity: 42%
  5α-DHT formed per culture well, mean: 6.61* +/− pmol of 5α-DHT formed/culture well
  5α-DHT formed per culture well, single well: 6.28 pmol of 5α-DHT formed/culture well and 6.44 pmol of 5α-DHT formed/culture well and 7.12 pmol of 5α-DHT formed/culture well
[2]; 100 μg/ml
  5α-reductase activity as percentage of the “DMSO 0.1% (v/v)” group: 64 percentage of the “DMSO 0.1% (v/v)” group
  inhibition of the 5α-reductase activity: 26%
  5α-DHT formed per culture well, mean: 7.24* +/− pmol of 5α-DHT formed/culture well
  5α-DHT formed per culture well, single well: 7.52 pmol of 5α-DHT formed/culture well and 7.00 pmol of 5α-DHT formed/culture well and 7.20 pmol of 5α-DHT formed/culture well
[2]; tested at 1, 10 and 100 μg/ml
  group by 5α-reductase inhibitory activity: A
